The values that follow come from patent US8623851B2 (Mylan Specialty L.P., priority 2001, dated 2014).

Data set [1] can be described thus: Decomposition kinetics (stability) of formoterol in aqueous solution. The format is physicochemical. The source says: In the embodiments herein, the compositions have a pH of about 2.0 to about 8.0. The particular pH of a given composition for long term storage provided herein may be determined empirically using standard stability assays well known to those of skill in the art (see, e.g., the Examples). […] In certain of the above embodiments, the compositions are formulated at a pH of about 4, 4.4 or 4.6 up to about 5.5, 5.7 or 6. In other embodiments, the pH is about 5.0.
In other of the above embodiments, the compositions further contain a buffer, including, but not limited to, citric acid/phosphate, acetate, barbital, borate, Britton-Robinson, cacodylate, citrate, collidine, formate, maleate, Mcilvaine, phosphate, Prideaux-Ward, succinate, citrate-phosphate-borate (Teorell-Stanhagen), veronal acetate, MES (2-(N-morpholino)ethanesulfonic acid), BIS-TRIS (bis(2-hydroxyethyl)imino-tris-(hydroxymethyl)methane), ADA (N-(2-acetamido)-2-iminodiacetic acid), ACES (N-(carbamoylmethyl)-2-aminoethanesulfonaic acid), PIPES (piperazine-N,N′-bis(2-ethanesulfonic acid)), MOPSO (3-(N-morpholino)-2-hydroxypropanesulfonic acid), BIS-TRIS PROPANE (1,3-bis(tris(hydroxy-methyl)methylamino)propane), BES (N,N-bis(2-hydroxyethyl)-2-amino-ethanesulfonaic acid), MOPS (3-(N-morpholino)propanesulfonic acid), TES (N-tris(hydroxymethyl)methyl-2-aminoethanesulfonic acid), HEPES (N-(2-hydroxyethyl)piperazine-N′-(2-eth-anesulfonic acid), DIPSO (3-(N,N-bis(2-hydroxyethyl)amino)-2-hydroxypropan-esulfonicacid), MOBS (4-(N-morpholino)butanesulfonic acid), TAPSO (3-(N-tris(hydroxymethyl)methyl-amino)-2-hydroxypropanesulfonic acid), TRIZMA® (tris(hydroxymethyl-aminomethane), HEPPSO(N-(2-hydroxyethyl)piperazine-N′-(2-hydroxy-propanesulfonic acid), POPSO (piperazine-N,N′-bis(2-hydroxypropane-sulfonic acid)), TEA (triethanolamine), EPPS (N-(2-hydroxyethyl)-piperazine-N′-(3-propanesulfonic acid), TRICINE (N-tris(hydroxy-methyl)methylglycine), GLY-GLY (glycylglycine), BICINE (N,N-bis(2-hydroxyethyl)glycine), HEPBS (N-(2-hydroxyethyl)piperazine-N′-(4-butanesulfonic acid)), TAPS(N-tris(hydroxymethyl)methyl-3-amino-propanesulfonic acid), AMPD (2-amino-2-methyl-1,3-propanediol), and/or any other buffers known to those of skill in the art. In one embodiment, the buffer is citric acid/phosphate buffer, acetate buffer, citrate buffer or phosphate buffer. In another embodiment, the buffer is a citrate buffer (citric acid/sodium citrate). […] Buffer concentrations for use herein include from about 0 or 0.01 mM to about 150 mM, or about 1 mM to about 20 mM. In one embodiment, the buffer concentration is about 5 mM. In another embodiment, the buffer concentration is about 1 mM to about 50 mM, or about 20 mM. […] The particular buffer and buffer concentration of a given composition for long term storage provided herein may be determined empirically using standard stability assays well known to those of skill in the art (see, e.g., the Examples).
Ionic strengths of the compositions provided herein are from about 0 to about 0.4, or from about 0.05 to about 0.16. […] The particular ionic strength of a given composition for long term storage provided herein may be determined empirically using standard stability assays well known to those of skill in the art (see, e.g., the Examples).

The test system of data set [2] is patients with reversible obstructive respiratory diseases. The settings on record: cited from earlier work.
Data set [3] can be described thus: Estimated shelf-life of formoterol in the compositions (Arrhenius kinetics). The format is physicochemical.

The structures appear in SMILES notation. Like-named read-outs stand apart in the source and are kept apart here.

As for `COc1ccc(CC(C)NCC(O)c2ccc(O)c(NC=O)c2)cc1` (racemic) [formoterol, 2-hydroxy-5-((1RS)-1-hydroxy-2-(((1RS)-2-(p-methoxyphenyl)-1-methylethyl)amino)ethyl)formanilide], in data set [1] (aqueous solution, 60° C., buffer concentration 5 mM, ionic strength 0.05), the “pH at which decomposition is slowest” value was “about 5.0”. Besides, the “rate constant (kobs) for decomposition” value in data set [1] (aqueous solution, 60° C., pH 3, buffer concentration 5 mM, ionic strength 0.05) is “approximately 0.62 day^−1”; in data set [1] (aqueous solution, 60° C., pH 4, buffer concentration 5 mM, ionic strength 0.05) it was roughly 0.11 day⁻¹; in data set [1] (aqueous solution, 60° C., pH 5, buffer concentration 5 mM, ionic strength 0.05) it was roughly 0.044 day⁻¹; in data set [1] (aqueous solution, 60° C., pH 7, buffer concentration 5 mM, ionic strength 0.05), roughly 0.55 day⁻¹. Also, the “effect of buffer concentration on rate constant of decomposition” value is “increased the rate constant of decomposition significantly” in data set [1] (low and approximately neutral pH conditions, buffer concentration 5 mM to 20 mM); “no noticeable differences in rate constant were observed” in data set [1] (pH region of about 4.5 to about 5.5, buffer concentration 5 mM to 20 mM). Moreover, the “duration of bronchodilatory effect” value in data set [2] was “greater than 12 hours”. In data set [2], the “onset of bronchodilatory effect” value was 1 to 3 min. In addition, the aqueous solubility result runs as follows: (pH between about 5 and about 7, ambient temperature) “approximately 2.2 mg/mL”; (pH of about 3, ambient temperature) “about 4.8 mg/mL”; (pH of about 4, ambient temperature) “approximately 3 mg/mL”. The “solubility in pure water” value (pure water (HPLC water), ambient temperature) is “approximately 2 mg/mL”. Further, the estimated shelf-life entry is “about 6.2 years” in data set [3] (5° C.) and “about 7.5 months” in data set [3] (25° C.).
